Active and inactive are the calls of the source.
Experiments:
[1] = NIH3T3 cell viability loss – ATP luminescence, mouse fibroblasts, counter-screen, dose response (AID 2010); format: functional, cell-based;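 note: cells exposed to compound for about 90 hours before reading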
[2] = target: DNA dC->dU-editing enzyme APOBEC-3G (Homo sapiens, UniProt Q9HC16); format: functional;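 note: Dose-response counterscreen measuring inhibition of APOBEC3G DNA deaminase activity, run while confirming APOBEC3A inhibitors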
Chain of DNA dC->dU-editing enzyme APOBEC-3G (Q9HC16 whole entry): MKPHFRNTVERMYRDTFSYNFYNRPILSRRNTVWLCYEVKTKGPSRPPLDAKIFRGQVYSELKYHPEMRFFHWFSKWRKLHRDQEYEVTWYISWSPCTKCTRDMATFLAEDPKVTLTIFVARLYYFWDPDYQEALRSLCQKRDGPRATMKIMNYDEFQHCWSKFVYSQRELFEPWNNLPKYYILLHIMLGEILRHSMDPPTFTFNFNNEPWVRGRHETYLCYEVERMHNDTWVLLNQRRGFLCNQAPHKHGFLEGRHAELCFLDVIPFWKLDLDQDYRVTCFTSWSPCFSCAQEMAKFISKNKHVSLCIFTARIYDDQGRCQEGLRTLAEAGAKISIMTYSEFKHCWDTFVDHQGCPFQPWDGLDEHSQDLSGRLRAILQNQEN

[3] = target: DNA dC->dU-editing enzyme APOBEC-3A (Homo sapiens, UniProt P31941); assay: Dose Response confirmation of small molecule APOBEC3A DNA Deaminase Inhibitors via a fluorescence-based single-stranded DNA deaminase assay. [Related pubchem assays (depositor defined):AID493011, AID493024]; format: functional
Chain of DNA dC->dU-editing enzyme APOBEC-3A (P31941 whole entry, the tested form may be a part): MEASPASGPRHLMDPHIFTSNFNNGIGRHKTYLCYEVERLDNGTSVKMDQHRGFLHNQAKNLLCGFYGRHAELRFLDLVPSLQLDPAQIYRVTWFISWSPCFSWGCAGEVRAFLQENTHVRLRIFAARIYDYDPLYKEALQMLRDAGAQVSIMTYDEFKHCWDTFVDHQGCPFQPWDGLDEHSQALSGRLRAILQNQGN

[4] = target: T1, Carboxy-terminal domain RNA polymerase II polypeptide A small phosphatase 1 (Homo sapiens, UniProt Q9GZU7); assay: CTDSP1 inhibitors, concentration-response, biochemical, absorbance readout, ultra-high-throughput screen actives (AID 540297); format: functional
T1 sequence (Q9GZU7 whole entry): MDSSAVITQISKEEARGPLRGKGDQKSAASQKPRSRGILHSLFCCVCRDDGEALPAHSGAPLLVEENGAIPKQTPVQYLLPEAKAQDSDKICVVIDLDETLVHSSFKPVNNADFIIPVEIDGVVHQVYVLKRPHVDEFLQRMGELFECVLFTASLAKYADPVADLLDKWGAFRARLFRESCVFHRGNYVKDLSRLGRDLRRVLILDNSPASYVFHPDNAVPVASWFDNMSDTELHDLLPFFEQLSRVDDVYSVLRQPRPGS

[5] = NIH-3T3 fibroblast cytotoxicity, dose response, cytotoxicity control, cell-based, fluorescence, Alamar Blue, secondary assay (AID 2327); format: functional;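 note: NIH-3T3 mouse fibroblasts cultured with fluconazole at 8 µg/mL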
[6] = Trypanosoma cruzi growth suppression in host cells – NIH3T3 host cells, beta-gal luminescence, confirmation (AID 2044); format: functional, cell-based;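 note: intracellular parasites grown in NIH/3T3 mouse fibroblasts as host cells; luminescent beta-galactosidase reporter signal from transgenic T. cruzi replicating inside host cells; inhibitors lower the luminescence signal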
[7] = fluconazole-exposed Candida albicans growth modulators – fluorescence, retest, confirmation (AID 2467); format: functional, cell-based
[8] = viability of PTEN-deleted HCT116 cells – cell-based, HCT116 PTEN knockout, dose response (AID 1047); format: functional;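 note: HCT116 colon tumor cells with PTEN knocked out; cells exposed to compound for 60 hours before readout; potency for loss of cell viability measured by luminescence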
[9] = target: DNA damage-inducible transcript 3 protein (Mus musculus, UniProt P35639); format: functional, Cricetulus griseus
Chain of DNA damage-inducible transcript 3 protein (P35639 whole entry): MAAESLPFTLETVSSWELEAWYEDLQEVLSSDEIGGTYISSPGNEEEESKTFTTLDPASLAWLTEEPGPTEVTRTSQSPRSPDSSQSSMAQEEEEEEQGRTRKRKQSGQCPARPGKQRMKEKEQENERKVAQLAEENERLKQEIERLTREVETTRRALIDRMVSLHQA

[10] = viability of HCT116 lacking mutant beta-catenin – cell-based, human colon tumor, dose response (AID 1045); format: functional;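 note: HCT116 colon tumor cells with beta catenin knocked out; cells exposed to compound for 60 hours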
[11] = target: T2, Voltage-gated N-type calcium channel alpha-1B subunit/Amyloid beta A4 precursor protein-binding family A member 1 (Homo sapiens, UniProt Q00975+Q02410); format: protein assay
T2 sequence (Q00975 whole entry): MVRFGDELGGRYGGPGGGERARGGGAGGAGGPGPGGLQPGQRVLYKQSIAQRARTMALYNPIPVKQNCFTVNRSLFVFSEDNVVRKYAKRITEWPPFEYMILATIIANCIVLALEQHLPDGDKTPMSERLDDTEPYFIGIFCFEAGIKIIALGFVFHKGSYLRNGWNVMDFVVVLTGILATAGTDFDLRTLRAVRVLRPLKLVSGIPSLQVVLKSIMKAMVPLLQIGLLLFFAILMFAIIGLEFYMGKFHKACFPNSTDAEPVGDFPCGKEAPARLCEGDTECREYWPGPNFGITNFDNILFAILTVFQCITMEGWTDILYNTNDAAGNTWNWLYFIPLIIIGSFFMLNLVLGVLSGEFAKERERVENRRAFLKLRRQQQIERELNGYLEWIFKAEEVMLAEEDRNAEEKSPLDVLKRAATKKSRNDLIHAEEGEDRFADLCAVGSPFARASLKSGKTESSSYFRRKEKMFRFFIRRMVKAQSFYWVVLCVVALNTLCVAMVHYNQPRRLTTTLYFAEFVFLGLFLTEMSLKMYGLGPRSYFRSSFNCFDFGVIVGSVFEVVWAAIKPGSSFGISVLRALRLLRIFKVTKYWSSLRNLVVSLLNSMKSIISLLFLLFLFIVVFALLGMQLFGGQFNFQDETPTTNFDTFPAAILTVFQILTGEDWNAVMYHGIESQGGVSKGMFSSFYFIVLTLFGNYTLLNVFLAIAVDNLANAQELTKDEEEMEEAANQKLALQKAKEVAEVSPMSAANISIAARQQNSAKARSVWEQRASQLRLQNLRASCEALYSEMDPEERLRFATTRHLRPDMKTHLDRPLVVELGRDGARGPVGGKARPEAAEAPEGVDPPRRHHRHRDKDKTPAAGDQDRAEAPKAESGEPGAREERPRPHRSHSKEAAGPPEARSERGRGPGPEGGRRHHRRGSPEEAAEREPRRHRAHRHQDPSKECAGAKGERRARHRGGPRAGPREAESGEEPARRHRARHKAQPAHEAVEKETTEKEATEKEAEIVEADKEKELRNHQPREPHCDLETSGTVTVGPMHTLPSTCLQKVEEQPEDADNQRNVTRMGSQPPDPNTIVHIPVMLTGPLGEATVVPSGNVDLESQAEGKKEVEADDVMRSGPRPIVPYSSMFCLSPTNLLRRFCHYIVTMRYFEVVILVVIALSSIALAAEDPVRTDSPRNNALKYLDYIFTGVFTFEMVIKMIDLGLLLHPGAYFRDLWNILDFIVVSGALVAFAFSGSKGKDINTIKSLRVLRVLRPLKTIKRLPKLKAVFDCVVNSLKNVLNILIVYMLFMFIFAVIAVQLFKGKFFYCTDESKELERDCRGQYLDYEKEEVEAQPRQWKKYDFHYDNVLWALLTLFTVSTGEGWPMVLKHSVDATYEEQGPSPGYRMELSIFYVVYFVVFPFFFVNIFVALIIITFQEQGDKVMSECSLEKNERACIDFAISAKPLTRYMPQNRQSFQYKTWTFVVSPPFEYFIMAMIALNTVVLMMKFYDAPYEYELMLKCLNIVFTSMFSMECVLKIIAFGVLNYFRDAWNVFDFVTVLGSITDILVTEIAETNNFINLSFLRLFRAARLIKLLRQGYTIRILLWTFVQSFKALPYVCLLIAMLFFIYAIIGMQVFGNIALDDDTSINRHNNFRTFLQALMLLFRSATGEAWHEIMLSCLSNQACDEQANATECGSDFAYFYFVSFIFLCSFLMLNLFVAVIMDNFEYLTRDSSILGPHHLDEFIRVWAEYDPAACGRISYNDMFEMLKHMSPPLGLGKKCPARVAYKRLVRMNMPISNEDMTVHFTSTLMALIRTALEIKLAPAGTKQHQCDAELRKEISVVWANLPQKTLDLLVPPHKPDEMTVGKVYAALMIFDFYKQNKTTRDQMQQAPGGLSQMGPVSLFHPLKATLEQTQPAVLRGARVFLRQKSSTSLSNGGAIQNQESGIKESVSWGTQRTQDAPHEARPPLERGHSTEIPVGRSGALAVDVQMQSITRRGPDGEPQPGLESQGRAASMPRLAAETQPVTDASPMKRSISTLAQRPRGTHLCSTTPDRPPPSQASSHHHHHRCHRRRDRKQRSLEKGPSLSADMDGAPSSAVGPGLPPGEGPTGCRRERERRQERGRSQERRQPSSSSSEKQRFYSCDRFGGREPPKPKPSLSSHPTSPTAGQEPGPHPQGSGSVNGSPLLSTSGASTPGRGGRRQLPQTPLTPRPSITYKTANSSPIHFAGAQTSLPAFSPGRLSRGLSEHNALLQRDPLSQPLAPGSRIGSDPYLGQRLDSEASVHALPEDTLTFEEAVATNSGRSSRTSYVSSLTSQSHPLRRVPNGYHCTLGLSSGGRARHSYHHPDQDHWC
T2 sequence (Q02410 whole entry): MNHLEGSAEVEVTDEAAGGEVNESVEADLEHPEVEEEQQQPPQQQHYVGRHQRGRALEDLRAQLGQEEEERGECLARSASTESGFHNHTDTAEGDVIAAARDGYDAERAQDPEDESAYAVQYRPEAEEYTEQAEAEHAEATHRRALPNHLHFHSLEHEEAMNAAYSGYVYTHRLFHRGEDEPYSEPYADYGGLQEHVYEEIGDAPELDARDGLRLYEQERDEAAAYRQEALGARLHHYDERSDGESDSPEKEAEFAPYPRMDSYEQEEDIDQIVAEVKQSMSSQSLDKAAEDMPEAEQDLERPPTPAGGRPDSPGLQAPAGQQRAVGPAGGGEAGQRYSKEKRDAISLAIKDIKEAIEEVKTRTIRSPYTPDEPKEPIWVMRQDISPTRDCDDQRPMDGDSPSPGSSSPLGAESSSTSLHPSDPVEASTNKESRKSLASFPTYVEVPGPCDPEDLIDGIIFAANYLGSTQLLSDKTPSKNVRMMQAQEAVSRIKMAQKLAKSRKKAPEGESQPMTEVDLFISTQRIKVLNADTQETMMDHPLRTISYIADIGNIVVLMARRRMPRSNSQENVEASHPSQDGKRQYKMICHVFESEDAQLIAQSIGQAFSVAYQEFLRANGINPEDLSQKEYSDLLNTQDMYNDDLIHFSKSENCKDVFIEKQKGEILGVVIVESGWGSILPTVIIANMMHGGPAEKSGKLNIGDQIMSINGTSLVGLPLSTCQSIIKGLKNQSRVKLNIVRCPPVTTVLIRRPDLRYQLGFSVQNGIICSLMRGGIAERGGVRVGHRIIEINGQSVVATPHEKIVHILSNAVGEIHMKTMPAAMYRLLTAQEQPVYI

[12] = target: T2, Voltage-gated N-type calcium channel alpha-1B subunit/Amyloid beta A4 precursor protein-binding family A member 1; format: protein assay; remark: listed apart in the source
[13] = target: Eukaryotic translation initiation factor 4H (Homo sapiens, UniProt Q15056); assay: eIF4H binding inhibition – biochemical, uHTS, fluorescence polarization, translation initiation inhibitor project, primary screen (AID 2012)
[14] = target: Polyadenylate-binding protein 1 (Homo sapiens, UniProt P11940); assay: blockers of PABP interaction with poly(A) – biochemical, fluorescence polarization, […] (AID 2014)
Chain of Polyadenylate-binding protein 1 (P11940 whole entry): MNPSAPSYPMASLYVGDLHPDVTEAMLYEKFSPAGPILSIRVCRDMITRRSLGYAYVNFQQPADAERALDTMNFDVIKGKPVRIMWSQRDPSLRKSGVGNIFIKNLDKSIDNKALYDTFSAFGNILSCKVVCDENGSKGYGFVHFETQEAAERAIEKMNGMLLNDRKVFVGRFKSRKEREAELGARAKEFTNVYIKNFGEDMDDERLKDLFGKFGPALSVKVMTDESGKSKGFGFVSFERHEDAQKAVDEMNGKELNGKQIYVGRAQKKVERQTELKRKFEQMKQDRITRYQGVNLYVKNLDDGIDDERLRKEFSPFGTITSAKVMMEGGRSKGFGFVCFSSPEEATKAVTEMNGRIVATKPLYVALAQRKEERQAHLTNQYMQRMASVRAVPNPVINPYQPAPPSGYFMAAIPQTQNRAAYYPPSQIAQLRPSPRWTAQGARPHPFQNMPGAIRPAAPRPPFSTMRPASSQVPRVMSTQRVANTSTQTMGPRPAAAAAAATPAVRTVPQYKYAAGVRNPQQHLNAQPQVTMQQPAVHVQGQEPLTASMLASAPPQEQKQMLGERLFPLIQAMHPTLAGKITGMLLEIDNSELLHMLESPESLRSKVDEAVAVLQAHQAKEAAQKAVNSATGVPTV

[15] = Luminescence-based counterscreen assay for KLF5 inhibitors: dose response cell-based high throughput screening assay to identify cytotoxic compounds using the IEC-6 intestinal epithelial cell line. [Related pubchem assays: 1700 (Primary screen.), 1834 (Confirmation screen.), 1858 (Summary AID.), 1905 (Counterscreen.)]; format: functional
[16] = blockers of bursicon-stimulated LGR2 cAMP reporter – cell-based, HEK293, CRE-luciferase reporter, cherry pick, set 2, dose response (AID 743343); format: functional;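 note: transfected cells were stimulated with diluted bursicon conditioned medium after compound addition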
[17] = luciferase reporter signal suppression in cells – H4 neuroglioma cells, luminescence, dose response (AID 1990); format: functional, cell-based
[18] = alpha-synuclein stem-loop luciferase translation blockers – H4 neuroglioma cells, luminescence, confirmation (AID 1988); format: functional, cell-based
[19] = A549 cell cytotoxicity, dose response, cytotoxicity control, plate reader, cherry-pick, antagonist series (AID 743412); format: functional, cell-based
[20] = blockade of melanocortin 4 receptor signaling – cell-based, plate reader, cherry pick, counter-screen for LGR2 antagonist project, dose response (AID 743444); format: functional;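 note: transfected HEK 293 cells stimulated with alpha-MSH peptide; potency of inhibitors of the alpha-MSH evoked signal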
[21] = toxicity toward HepG2 liver cells – cell-based, plate reader, cherry-pick, antagonist series, cytotoxicity control, dose response (AID 743416); format: functional
[22] = Luminescence Cell-Based Dose Response HTS to Identify Inhibitors of 5'UTR Stem-Loop Driven Prion Protein mRNA Translation in H4 Neuroglioblastoma Cells. [Related pubchem assays: 1827 (Project Summary), 1813 (Primary HTS)]; format: functional
[23] = Luminescence Cell-Based Dose Response to Identify Activators of Luciferase Translation or Activity in H4-C Neuroglioblastoma Cells. [Related pubchem assays: 1829 (Project Summary), 1814 (Primary HTS)]; format: functional
[24] = target: FAD-linked sulfhydryl oxidase ALR (Homo sapiens, UniProt P55789); assay: ALR-catalysed DTT oxidation blockers – biochemical, H2O2 detection, luminescence, cherry-pick, dose response (AID 493248)
[25] = Luminescence Cell-Based Dose Confirmation to Identify Activators of 5'UTR Stem-Loop Driven Alpha-Synuclein mRNA Translation in H4 Neuroglioblastoma Cells. [Related pubchem assays: 1829 (Project Summary), 1814 (Primary HTS)]; format: functional
[26] = Luminescence Cell-Based Dose Response to Identify Activators of 5'UTR Stem-Loop Driven Prion Protein mRNA Translation in H4-C Neuroglioblastoma Cells. [Related pubchem assays: 1829 (Project Summary), 1814 (Primary HTS)]; format: functional
H4 = assay: Luminescence Cell-Based Dose Response HTS to Identify Activators of 5'UTR Stem-Loop Driven Prion Protein mRNA Translation in H4 Neuroglioblastoma Cells. [Related pubchem assays: 1829 (Project Summary), 1814 (Primary HTS)]; format: functional; settings: Homo sapiens
[27] = Luminescence Cell-Based Dose Response HTS to Identify Activators of Luciferase Translation or Activity in H4 […] Cells. [Related pubchem assays: 1829 (Project Summary), 1814 (Primary HTS)]; format: functional
Beta-galactosidase = Beta-galactosidase (Escherichia coli, UniProt Q8VNN2); assay: detection-enzyme interference by beta-gal modulators – biochemical, E. coli enzyme, set 3, artefact control for CCR6 antagonist project, dose response (AID 504712); format: functional
Nonstructural protein 1 = Nonstructural protein 1 (Influenza A virus, UniProt Q194T2); format: functional, Influenza A virus (A/California/07/2009(H1N1))
Chain of Nonstructural protein 1 (Q194T2 whole entry): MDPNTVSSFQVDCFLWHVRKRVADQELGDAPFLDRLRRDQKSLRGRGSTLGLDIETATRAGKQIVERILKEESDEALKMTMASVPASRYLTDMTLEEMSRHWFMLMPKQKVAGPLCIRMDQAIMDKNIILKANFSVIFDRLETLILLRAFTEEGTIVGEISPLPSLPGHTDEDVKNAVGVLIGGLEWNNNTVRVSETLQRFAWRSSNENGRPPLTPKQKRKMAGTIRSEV

INS1 = assay: INS-1E survival protection against cytokine death – cell-based, luminescence, retest, dose response (AID 449756); format: functional; settings: Rattus norvegicus;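 note: cell death triggered by IL-1 beta plus TNF-alpha plus IFN-gamma mixture; protective hits raise ATP signal compared with cytokine alone wells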
[28] = target: T3, Calpain-2 catalytic subunit (Sus scrofa, UniProt P43367); assay: m-calpain protease blockers, concentration series – biochemical, fluorogenic peptide substrate, dose response (AID 1420); format: functional
T3 sequence (P43367 whole entry): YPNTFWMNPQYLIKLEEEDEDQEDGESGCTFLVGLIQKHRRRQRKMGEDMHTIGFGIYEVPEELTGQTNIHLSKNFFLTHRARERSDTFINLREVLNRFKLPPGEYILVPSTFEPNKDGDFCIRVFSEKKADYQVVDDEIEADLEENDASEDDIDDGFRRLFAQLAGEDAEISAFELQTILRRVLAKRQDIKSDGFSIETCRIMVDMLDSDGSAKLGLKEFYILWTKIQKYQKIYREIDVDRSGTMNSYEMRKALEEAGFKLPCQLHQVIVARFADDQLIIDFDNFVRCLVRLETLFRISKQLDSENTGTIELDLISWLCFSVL

[29] = Luminescence Cell-Based Dose Confirmation HTS to Identify Activators of 5'UTR Stem-Loop Driven Alpha-Synuclein mRNA Translation in H4 Neuroglioblastoma Cells. [Related pubchem assays: 1829 (Project Summary), 1814 (Primary HTS)]; format: functional

For `CC1(C)CC(N2CCCC2)=CC(=[N+]2CCCC2)C1`, which EC50 [1] is on record?
The EC50 was > 60 µM (not active).

What about the IC50 [2] of the same molecule?
Its IC50 is 1.47 µM (active).

What about the IC50 [3] of the same molecule?
The IC50 was 1.53 µM (active).

And the IC50 [4]?
Its IC50 is 3.62 µM (active).

What about the EC50 [5] of the same molecule?
The EC50 was > 160 µM (inactive).

And the EC50 [6]?
Its EC50 is 0.693 µM (active).

What about the EC50 [7] of the same molecule?
Its EC50 is 2.7 µM (active).

Which EC50 [8] does the source give for `COc1ccc(OC)c2sc(NC(=O)c3ccc(Cl)s3)nc12` here?
Its EC50 is 11.8 µM (active).

And the “Absolute IC50 (CHOP)” value [9]?
Its value is 10 µM.

What about the EC50 [10] of the same molecule?
The EC50 was 9.28 µM (active).

With `COc1ccc2nc(O)c(CN(C3CCCCC3)C(c3nnnn3Cc3ccco3)C(C)C)cc2c1` (stereo not drawn) as the molecule, how does the IC50 [11] read?
Its IC50 is 25.9 µM (active).

And the IC50 [12]?
Its IC50 is 3.17 µM (active).

With `CC(C)[N+](C)(C)CC#CC(O)(c1ccccc1)c1ccccc1` as the molecule, how does the IC50 [2] read?
The IC50 was 2.49 µM (active).

And the IC50 [13]?
Its IC50 is > 100 µM (inactive).

What about the IC50 [3] of the same molecule?
Its IC50 is 2.55 µM (active).

What about the IC50 [14] of the same molecule?
Its IC50 is 9.63 µM (active).

Which “Absolute IC50 (CHOP)” value [9] does the source give for `O=C(c1ccc(Cl)cc1)c1c[nH]c(C(=O)NNc2cccc(Cl)n2)c1` here?
Its value is 10 µM.

For `COC(=O)c1c(N)sc(C(=O)NCCc2ccccc2)c1C`, which IC50 [15] is on record?
Its IC50 is > 39.8 µM (not active).

What about the AC50 [16] of the same molecule?
The AC50 was 1.44 µM (active).

What about the EC50 [17] of the same molecule?
Its EC50 is 3.07 µM (active).

What about the EC50 [18] of the same molecule?
Its EC50 is 0.213 µM (active).

And the AC50 [19]?
Its AC50 is > 52 µM (inactive).

What about the AC50 [20] of the same molecule?
The AC50 was 1.94 µM (active).

What about the AC50 [21] of the same molecule?
Its AC50 is > 52 µM (inactive).

And the EC50 [22]?
Its EC50 is 0.394 µM (active).

For `CN(C)c1ccc(/C=C/c2nnnn2-c2ccccc2)cc1`, which EC50 [23] is on record?
Its EC50 is 0.323 µM (active).

What about the AC50 [24] of the same molecule?
The AC50 was 0.894 µM (active).

And the EC50 [25]?
The EC50 was 0.365 µM (active).

And the EC50 [26]?
Its EC50 is 0.463 µM (active).

And the EC50 (H4)?
The EC50 was < 0.1 µM (active).

And the EC50 [27]?
Its EC50 is < 0.1 µM (inconclusive).

Which results are given for `CC(C)(C#CCCCCC#CC(C)(C)[N+](C)(C)C)[N+](C)(C)C`?
IC50 [13]: > 100 µM (inactive); IC50 [14]: 7.97 µM (active)

Which results are given for `O=[N+]([O-])c1ccc(O)c(/C=N/Nc2nn[nH]n2)c1`?
IC50 (Beta-galactosidase): > 66.6 µM (inactive); IC50 (Nonstructural protein 1): 1.66 µM (active)

What does the source list for `Cc1ccc(NC2=C/C(=N/S(=O)(=O)c3cccs3)c3ccccc3C2=O)cc1C`?
EC50 [23]: 0.43 µM (active); AC50 (INS1): 1.56 µM (active); EC50 [25]: 0.318 µM (active); IC50 [28]: 22.3 µM (not active); EC50 [26]: 0.348 µM (active); EC50 [29]: 0.181 µM (active); EC50 (H4): < 0.1 µM (active); EC50 [27]: < 0.1 µM (active)
